In general, solubility refers to the concentration that dissolves in the medium under given conditions. Higher therefore signals a readily soluble substance.

Values after ≈ are worked out from the molar mass of the structure shown.

These results are taken from patent US10253045B2, “Crystalline forms of a therapeutic compound and uses thereof” (Kala Pharmaceuticals, Inc., priority 2014, dated 2019).

Data set [1] is described as follows: Thermodynamic aqueous solubility. The data set is classed as physicochemical. As to conditions: for Equilibrated form in suspension: XRPD of equilibrated solids after the solubility measurement in water, ambient temperature. As for the experimental part: The thermodynamic solubility values of Compound 5 using Crystalline Forms I and II as starting forms were determined in water. In one vial, 10 mg of Crystalline Form I of Compound 5 and 1 mL of water were stirred at ambient temperature for 24 hours at 400 RPM. In a separate vial, 10 mg of Crystalline Form II of Compound 5 was suspended in 1 mL of water, and then the suspension was stirred at ambient temperature for 48 hours at 200 RPM. The equilibrated solids were then separated by dispensing 500 μL of the suspension into a 1.5-mL centrifuge tube, and then centrifuged for 5 minutes at 13,200 RPM using an Eppendorf 5415D centrifuge. As much of the supernatant as possible was decanted using a Pasteur pipette and dispensed into a new 1.5-mL centrifuge tube. The samples were again centrifuged for 5 minutes at 13,200 RPM using the same instrument. The Compound 5 content and pH values of the supernatant were determined by HPLC and pH meter, respectively. The pH of the supernatant was determined to be 9.16.

Data set [2] can be described thus: Wet milling to nanocrystals: particle size and crystal form stability (XRPD). In kind it is physicochemical. As to conditions: XRPD of milled samples compared with neat form. As for the experimental part:
Crystalline Forms of Compound 5 were wet-milled in the presence of stabilizers that enable the preparation of mucus-penetrating particles (MPP) or nanocrystals. The same milling process was employed for all samples. Milling media, specifically 0.5 mL bulk volume of 1-mm ceria-stabilized zirconium oxide beads, was added to a glass vial. Approximately 25 mg of Compound 5 Crystalline Form I or Crystalline Form II and 0.475 mL of milling solution, as specified in each example, were then added to the vial yielding a slurry of 5% Compound 5. A magnetic stir bar was used to agitate the beads, stirring at approximately 500 rpm.
Neat Crystalline Form I of Compound 5 synthesized according to Example 1 was wet-milled in the presence of PLURONIC® F127 (also known as Poloxamer 407) or polyvinyl alcohol with an average MW of 31 kDa and average hydrolysis of 88% (PVA), and a buffer.
Loss of crystallinity and possible form change to amorphous and Crystalline Form II occurred during milling.
Neat Crystalline Form II of Compound 5 prepared in accordance with Example 2 was wet-milled the presence of PLURONIC® F127 (also known as Poloxamer 407) and a buffer.
Approximately 100 μL of Sample A was transferred directly onto the surface of the sample XRPD holder, then was allowed to air dry.

Turning to `Cc1cc(C(=O)Nc2cc(Oc3ccc4nc(NC(=O)CCCN5CCC6(CC5)COC6)cn4n3)ccc2C)n(C)n1` [Crystalline Form I, N-(5-((2-(4-(2-oxa-7-azaspiro[3.5]nonan-7-yl)butanamido)imidazo[1,2-b]pyridazin-6-yl)oxy)-2-methylphenyl)-1,3-dimethyl-1H-pyrazole-5-carboxamide], the “Equilibrated form in suspension” value is recorded as “converted to amorphous” in data set [1] and “Amorphous” in data set [1] (listed as I). This compound also showed a solubility in data set [1] (water, 22 °C, pH 9.16, water, thermodynamic from solid, ambient temperature (ca. 22° C.), 10 mg in 1 mL stirred 24 h (Form I) or 48 h (Form II), supernatant pH 9.16, HPLC) of 27.8 µg/mL (≈ 48.5 µM). Further, in data set [2] (listed as Crystalline Form I of Compound 5), the “Stability of crystalline form to the milling process” value is on record as “not stable to the milling process”.
As to `Cc1cc(C(=O)Nc2cc(Oc3ccc4nc(NC(=O)CCCN5CCC6(CC5)COC6)cn4n3)ccc2C)n(C)n1` [Crystalline Form II, N-(5-((2-(4-(2-oxa-7-azaspiro[3.5]nonan-7-yl)butanamido)imidazo[1,2-b]pyridazin-6-yl)oxy)-2-methylphenyl)-1,3-dimethyl-1H-pyrazole-5-carboxamide], the “Equilibrated form in suspension” value in data set [1] is on record as “stable”. For the same compound, in data set [1] (water, ambient temperature (ca. 22° C.), 10 mg in 1 mL stirred 24 h (Form I) or 48 h (Form II), supernatant pH 9.16, HPLC), the “Solubility in Water” value was 15.76 µg/mL (≈ 27.5 µM). Further, in data set [2] (listed as Crystalline Form II of Compound 5), the “Stability of crystalline form to the milling process” value was “stable to the milling process”.
